# Columns and labels:
# in vivo [1] = conditions: mouse, plasma, po, 20 mg/kg
# Description: Plasma concentration in mouse at 20 mg/kg, po after 6 hrs
# in vivo [2] = conditions: mouse, plasma, po, 20 mg/kg; remark: listed apart in the source
# Description: Plasma concentration in mouse at 20 mg/kg, po after 2 hrs
Structure (SMILES),concentration at 6 h (in vivo [1]) [nM],concentration at 2 h (in vivo [2]) [nM]
Cc1c(C)n(Cc2ccc(-c3ccccc3C(=O)O)cc2)c2ccc(C(=O)N[C@@H](C)c3cccc(C4CC4)c3)cc12,2400,19000
Cc1c(C)n(Cc2ccc(-c3ccccc3C(=O)O)cc2)c2ccc(C(=O)N[C@@H](C)c3ccc(C(C)(C)C)cc3)cc12,1900,5600
Cc1c(C)n(Cc2ccc(-c3ccccc3C(=O)NO)cc2)c2ccc(C(=O)N[C@@H](C)c3cccc(C(C)C)c3)cc12,30,400
Cc1c(C)n(Cc2ccc(-c3ccccc3C(N)=O)cc2)c2ccc(C(=O)N[C@@H](C)c3cccc(C(C)C)c3)cc12,100,2500
Cc1c(C)n(Cc2ccc(-c3ccccc3-c3n[nH]c(=O)o3)cc2)c2ccc(C(=O)N[C@@H](C)c3cccc(C(C)C)c3)cc12,10,200

# — ChEMBL document CHEMBL3734690, “Design, Synthesis, and Biological Evaluation of Indole Biphenylcarboxylic Acids as PPARγ Antagonists” (ACS Med Chem Lett, 2015)
